Several values for one entry are separate records, joined by “and”; a condition that tells them apart may be missing. Equal values may be shown once. Read-outs that look alike come from different tables or passages of the source.
Tests used:
[1] = test system: P. falciparum Dd2-2D4; test: P. falciparum asexual blood stage (ABS) growth assay, SYBR Green, 72 h, wild-type parasites; type: cell-based, Plasmodium falciparum; details: Plasmodium falciparum, DD2; SI Fig 16b; values on -log scale; read-out: ABS - Dd2-2D4 (converted)
[2] = molecular target: T1, PfcProRS (Plasmodium falciparum, UniProt Q8I5R7); type: binding; details: for dose-response signal (normalized), SI Fig 8: single replicates
T1 construct: made in house; host or cells: E. coli SoluBL-21

[3] = molecular target: HsProRS (Homo sapiens, UniProt P07814); test: TR-FRET ligand displacement assay with tracer MAT379 (CoraFluor-1-Halo and anti-His6 antibody formats); type: binding; parameters: made in house; host or cells: E. coli SoluBL-21; details: for TR-FRET dose-response, normalized signal (SI Fig 11): individual replicates
Chain of HsProRS (P07814 996-1512): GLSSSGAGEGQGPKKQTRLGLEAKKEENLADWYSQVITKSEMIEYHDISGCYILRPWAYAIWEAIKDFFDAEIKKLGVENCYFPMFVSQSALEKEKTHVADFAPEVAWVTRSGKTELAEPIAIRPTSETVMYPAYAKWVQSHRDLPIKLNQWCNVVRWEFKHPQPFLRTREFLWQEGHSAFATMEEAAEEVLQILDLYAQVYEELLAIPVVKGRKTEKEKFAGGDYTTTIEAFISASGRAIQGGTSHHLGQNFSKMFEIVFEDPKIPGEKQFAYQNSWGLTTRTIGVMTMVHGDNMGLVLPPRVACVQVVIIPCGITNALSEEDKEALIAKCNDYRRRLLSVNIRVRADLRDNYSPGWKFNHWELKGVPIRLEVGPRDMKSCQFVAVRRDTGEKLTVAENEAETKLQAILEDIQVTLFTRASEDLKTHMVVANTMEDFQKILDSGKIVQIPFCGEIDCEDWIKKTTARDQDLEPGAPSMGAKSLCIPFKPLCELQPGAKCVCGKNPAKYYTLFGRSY

T1 sequence (Q8I5R7 249-746): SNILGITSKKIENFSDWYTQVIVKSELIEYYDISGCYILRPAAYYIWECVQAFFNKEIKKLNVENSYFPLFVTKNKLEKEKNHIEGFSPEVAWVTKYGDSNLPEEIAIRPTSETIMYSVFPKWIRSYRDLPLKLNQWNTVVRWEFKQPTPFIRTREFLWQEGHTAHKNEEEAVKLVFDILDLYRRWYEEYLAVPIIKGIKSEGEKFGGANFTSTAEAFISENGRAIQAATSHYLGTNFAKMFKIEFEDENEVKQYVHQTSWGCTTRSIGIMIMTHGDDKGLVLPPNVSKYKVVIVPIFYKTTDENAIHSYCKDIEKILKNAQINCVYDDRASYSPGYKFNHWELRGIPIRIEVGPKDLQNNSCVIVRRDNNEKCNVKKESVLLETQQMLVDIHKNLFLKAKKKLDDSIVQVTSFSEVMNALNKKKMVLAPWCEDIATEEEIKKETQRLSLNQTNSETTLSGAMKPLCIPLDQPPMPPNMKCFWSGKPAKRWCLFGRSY

With `CC(C)(C)OC(=O)NCC1CCN(C(=O)Nc2nccnc2C(=O)NC2Cc3ccccc3C2)CC1` [compound 9] the EC50 [1] was 6.58 µM, the “dose-response signal (normalized), SI Fig 8” value ([2]; Log[inhibitor] (M) -5.000) was 8.25E-02 and 7.54E-02 and 9.29E-02 and the “dose-response signal (normalized), SI Fig 8” value ([2]; Log[inhibitor] (M) -5.301) was 2.45E-01 and 1.32E-01 and 2.09E-01. For the same compound, the “dose-response signal (normalized), SI Fig 8” value ([2]; Log[inhibitor] (M) -5.601) was 4.06E-01 and 4.09E-01 and 3.31E-01, the “dose-response signal (normalized), SI Fig 8” value ([2]; Log[inhibitor] (M) -5.904) was 5.21E-01 and 6.14E-01 and 5.87E-01 and the “dose-response signal (normalized), SI Fig 8” value ([2]; Log[inhibitor] (M) -6.208) was 7.48E-01 and 8.25E-01 and 7.95E-01. For the same compound, the “dose-response signal (normalized), SI Fig 8” value ([2]; Log[inhibitor] (M) -6.509) was 8.42E-01 and 8.68E-01 and 7.28E-01, the “dose-response signal (normalized), SI Fig 8” value ([2]; Log[inhibitor] (M) -6.796) was 9.11E-01 and 1.04E+00 and 1.02E+00 and the “dose-response signal (normalized), SI Fig 8” value ([2]; Log[inhibitor] (M) -7.108) was 9.58E-01 and 9.39E-01 and 1.04E+00. For the same compound, the “dose-response signal (normalized), SI Fig 8” value ([2]; Log[inhibitor] (M) -7.409) was 9.93E-01 and 1.06E+00 (2×), the “dose-response signal (normalized), SI Fig 8” value ([2]; Log[inhibitor] (M) -7.710) was 1.14E+00 and 1.04E+00 and 9.88E-01 and the “dose-response signal (normalized), SI Fig 8” value ([2]; Log[inhibitor] (M) -8.000) was 9.88E-01 and 1.04E+00 and 1.02E+00. The “dose-response signal (normalized), SI Fig 8” value ([2]; Log[inhibitor] (M) -8.301) was 9.59E-01 and 9.72E-01 and 9.39E-01, the “dose-response signal (normalized), SI Fig 8” value ([2]; Log[inhibitor] (M) -8.602) was 9.15E-01 and 9.90E-01 and 9.70E-01 and the “dose-response signal (normalized), SI Fig 8” value ([2]; Log[inhibitor] (M) -9.000) was 9.95E-01 and 1.01E+00 and 9.84E-01. For the same compound, the “dose-response signal (normalized), SI Fig 8” value ([2]; Log[inhibitor] (M) -9.301) was 1.06E+00 and 9.86E-01 and 9.57E-01, the “PfcProRS -- best Kd” value ([2]; SI Fig 16a, values on -log scale) was 6.452 and the “HsProRS % signal at 10 μM, + 100 μM proline” value ([3]; + 100 μM proline, 10 μM) was 51.7%. For the same compound, the Kd ([3]; HsProRS (KD [nM]) mean, no added proline/ATP (-)) was 2510 nM, the “normalized TR-FRET ligand displacement signal, dose-response replicates (SI Fig 6)” value ([3]; Log[inhibitor] (M) -5.000) was 3.85E-02 and 1.39E-01 and 8.67E-02 and the “TR-FRET dose-response, normalized signal (SI Fig 11)” value ([3]; Log[inhibitor] (M) -5.000) was 2.52E-01 and 2.44E-01 and 2.56E-01. The “normalized TR-FRET ligand displacement signal, dose-response replicates (SI Fig 6)” value ([3]; Log[inhibitor] (M) -5.301) was 2.62E-01 and 9.25E-02 and 2.11E-01, the “TR-FRET dose-response, normalized signal (SI Fig 11)” value ([3]; Log[inhibitor] (M) -5.301) was 3.68E-01 and 3.83E-01 and 3.86E-01 and the “normalized TR-FRET ligand displacement signal, dose-response replicates (SI Fig 6)” value ([3]; Log[inhibitor] (M) -5.601) was 2.47E-01 and 2.95E-01 and 3.23E-01. For the same compound, the “TR-FRET dose-response, normalized signal (SI Fig 11)” value ([3]; Log[inhibitor] (M) -5.601) was 5.41E-01 and 5.42E-01 and 6.20E-01, the “normalized TR-FRET ligand displacement signal, dose-response replicates (SI Fig 6)” value ([3]; Log[inhibitor] (M) -5.904) was 5.08E-01 and 5.80E-01 and 5.13E-01 and the “TR-FRET dose-response, normalized signal (SI Fig 11)” value ([3]; Log[inhibitor] (M) -5.904) was 6.85E-01 and 6.21E-01 and 6.49E-01. The “normalized TR-FRET ligand displacement signal, dose-response replicates (SI Fig 6)” value ([3]; Log[inhibitor] (M) -6.208) was 7.02E-01 and 7.67E-01 and 6.77E-01, the “TR-FRET dose-response, normalized signal (SI Fig 11)” value ([3]; Log[inhibitor] (M) -6.208) was 7.39E-01 and 7.74E-01 and 7.75E-01 and the “normalized TR-FRET ligand displacement signal, dose-response replicates (SI Fig 6)” value ([3]; Log[inhibitor] (M) -6.509) was 8.58E-01 and 7.92E-01 and 7.62E-01. For the same compound, the “TR-FRET dose-response, normalized signal (SI Fig 11)” value ([3]; Log[inhibitor] (M) -6.509) was 8.32E-01 and 8.29E-01 and 7.90E-01, the “normalized TR-FRET ligand displacement signal, dose-response replicates (SI Fig 6)” value ([3]; Log[inhibitor] (M) -6.796) was 9.92E-01 and 1.07E+00 and 1.01E+00 and the “TR-FRET dose-response, normalized signal (SI Fig 11)” value ([3]; Log[inhibitor] (M) -6.796) was 8.79E-01 and 8.03E-01 and 8.17E-01. For the same compound, the “normalized TR-FRET ligand displacement signal, dose-response replicates (SI Fig 6)” value ([3]; Log[inhibitor] (M) -7.108) was 8.83E-01 and 1.03E+00 and 1.07E+00, the “TR-FRET dose-response, normalized signal (SI Fig 11)” value ([3]; Log[inhibitor] (M) -7.108) was 8.15E-01 and 8.66E-01 and 8.33E-01 and the “normalized TR-FRET ligand displacement signal, dose-response replicates (SI Fig 6)” value ([3]; Log[inhibitor] (M) -7.409) was 9.70E-01 and 9.46E-01 and 9.42E-01. For the same compound, the “TR-FRET dose-response, normalized signal (SI Fig 11)” value ([3]; Log[inhibitor] (M) -7.409) was 8.81E-01 and 9.27E-01 and 8.52E-01, the “normalized TR-FRET ligand displacement signal, dose-response replicates (SI Fig 6)” value ([3]; Log[inhibitor] (M) -7.710) was 9.63E-01 and 9.72E-01 and 1.02E+00 and the “TR-FRET dose-response, normalized signal (SI Fig 11)” value ([3]; Log[inhibitor] (M) -7.710) was 8.59E-01 and 8.71E-01 and 8.69E-01. The “normalized TR-FRET ligand displacement signal, dose-response replicates (SI Fig 6)” value ([3]; Log[inhibitor] (M) -8.000) was 9.31E-01 and 9.57E-01 and 9.75E-01, the “TR-FRET dose-response, normalized signal (SI Fig 11)” value ([3]; Log[inhibitor] (M) -8.000) was 9.54E-01 and 9.12E-01 and 8.65E-01 and the “normalized TR-FRET ligand displacement signal, dose-response replicates (SI Fig 6)” value ([3]; Log[inhibitor] (M) -8.301) was 9.41E-01 and 8.96E-01 and 8.89E-01. The “TR-FRET dose-response, normalized signal (SI Fig 11)” value ([3]; Log[inhibitor] (M) -8.301) was 9.04E-01 and 9.25E-01 and 8.91E-01, the “normalized TR-FRET ligand displacement signal, dose-response replicates (SI Fig 6)” value ([3]; Log[inhibitor] (M) -8.602) was 9.58E-01 and 9.45E-01 and 9.24E-01 and the “TR-FRET dose-response, normalized signal (SI Fig 11)” value ([3]; Log[inhibitor] (M) -8.602) was 9.14E-01 and 8.78E-01 and 9.05E-01. For the same compound, the “normalized TR-FRET ligand displacement signal, dose-response replicates (SI Fig 6)” value ([3]; Log[inhibitor] (M) -9.000) was 1.05E+00 and 8.77E-01 and 8.55E-01, the “TR-FRET dose-response, normalized signal (SI Fig 11)” value ([3]; Log[inhibitor] (M) -9.000) was 8.65E-01 and 8.66E-01 and 9.64E-01 and the “normalized TR-FRET ligand displacement signal, dose-response replicates (SI Fig 6)” value ([3]; Log[inhibitor] (M) -9.301) was 8.65E-01 and 9.01E-01 and 8.87E-01. For the same compound, the “TR-FRET dose-response, normalized signal (SI Fig 11)” value ([3]; Log[inhibitor] (M) -9.301) was 9.03E-01 and 9.18E-01 and 8.96E-01.
